Measurements taken from patent US20220401414A1, “TREATMENT AND PREVENTION OF A NEURODEGENERATIVE DISORDER” (Inflazome Limited, priority 2019, published 2022).

System: 6-OHDA mouse model of Parkinson's disease
Experiment: Studies C and D: amphetamine-induced ipsilateral rotations in the 6-OHDA mouse model
Assay type: in vivo, C57BL6 mice
Conditions: Study D, 3 mg/kg oral daily, day 21 after 6-OHDA (12 μg)
Experimental: To determine the oral efficacy of the compound of formula (I) in the 6-OHDA mouse model of Parkinson's disease.
8-week-old C57BL6 male mice (obtained from ARC, Perth, Australia) were housed under a 12-h light cycle in a SPF climate-controlled facility with food and water provided ad libitum for two weeks prior to study initiation. For treatment with the compound of formula (I), mice were dosed via oral gavage. Ten (10) mice in each group were dosed at 3 or 1 mg/kg, starting the day before (24 hr prior) stereotaxic surgery, and then QD until sacrifice.
6-OHDA (Sigma) was prepared immediately prior to surgeries. A sterile saline (0.9%) solution containing ascorbic acid (0.2%) was used as the vehicle to dissolve 6-OHDA. […] In order to inject a final concentration of 12 μg into the right striatum, a working stock of 6 mg/ml was made injecting a final volume of 2 μl.
Mice were anaesthetized using ketamine (100 mg/kg, i.p.) and xylazine (10 mg/kg i.p.)
anesthesia and were placed into a stereotactic frame with nose and ear bars specially adapted for mice. The lesion was performed using a 5 μl Hamilton syringe to deliver either vehicle or 6-OHDA (12 μg) at the following coordinates relative to bregma: AP: −1.2 mm; ML: −1.7 mm; DV: 3.5 mm into the right dorsal striatum according to the stereotaxic atlas (“The mouse brain in stereotaxic coordinates” by Paxinos and Franklin, 1997). After drilling a 1 mm burr-hole in the skull, a 2 μl volume of solution was infused at the target site at the rate of 0.5 μl per minute. The needle was held in place for at least 5 minutes after injection to minimize retrograde flow along the needle tract. Mice were administered a subcutaneous injection of sterile Ringer's solution to is facilitate recovery and were placed on a heat-pad until complete recovery from anesthesia.
Amphetamine-induced ipsilateral rotations were performed at day 21 post-surgery. Mice were injected with 2 mg/kg of D-amphetamine and placed in circular glass bowls.
After an acclimatization period of five minutes, the net ipsilateral rotations over ten minutes were recorded and counted. Quantitation was performed from recorded videos by an investigator blinded to the treatment groups.
The aim of study D was to compare the neuroprotective efficacy of the compound of formula (I) with MCC95o in the mouse unilateral 6-OHDA model at 3 mg/kg. The amphetamine-induced ipsilateral rotations and striatal dopamine (DA) levels were assessed, using a protocol identical to that used for study C, with ten (10) mice in each group being dosed at 3 mg/kg for each drug, starting the day before (24 hr prior) stereotaxic surgery, and then daily throughout until sacrifice.

CC(C)(O)c1coc(S(=O)(=O)NC(=O)Nc2c3c(cc4c2CCC4)CCC3)c1 [MCC950, reference compound]
reduction in amphetamine-induced rotations relative to the 6-OHDA untreated group: 55%
